Literature values as cited in US20090105195A1, “COMPOSITION COMPRISING MICROBICIDAL ACTIVE INGREDIENTS” (priority 2007, published 2009).

How the values were obtained:
Settings in all cases: at low amounts, such as 0.025%
[1] = test system: Human Immunodeficiency Virus
[2] = test system: Human Papilloma Virus (HPV)
Herpes Simplex Virus = test system: Herpes Simplex Virus

CCCCCCCCCCCCOS(=O)(=O)[O-].[Na+] [SLS, sodium lauryl sulfate]
complete inactivation: inactivation of Human Immunodeficiency Virus [1] | inactivation of Human Papilloma Virus (HPV) [2] | inactivation of Herpes Simplex Virus (Herpes Simplex Virus)
